Patent US8030498B2, “Benzoylpyrazole compounds and herbicides containing them” (Ishihara Sangyo Kaisha, Ltd., priority 2005, dated 2011)

Key:
soybean = assay: Test Example 2: soil application on the day after sowing, growth inhibition rate, soybean; type: in vivo, Glycine max Merr.; conditions: 250 g/ha active ingredient, observed on 19th to 24th day
Method in brief: (§1)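 Upland soil pots sown with crop and weed seeds; next day wettable powder or emulsifiable concentrate at prescribed active-ingredient amounts, diluted to 500 L/ha water, sprayed onto soil. Growth inhibition scored visually 19–24 days later, 0 (as untreated) to 100% (complete kill).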

redroot pigweed = assay: Test Example 2: soil application on the day after sowing, growth inhibition rate, redroot pigweed; type: in vivo, Amaranthus retroflexus L.; conditions: 250 g/ha active ingredient, observed on 19th to 24th day
Method in brief: as §1

[1] = test system: redroot pigweed (Amaranthus retroflexus L.); assay: Test Example 1: foliar treatment, growth inhibition rate, redroot pigweed; type: in vivo; conditions: 31 g/ha active ingredient, visually observed 17th to 23rd day after application
Method in brief: (§2)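 Visual scoring of growth inhibition, 0% (untreated) to 100% (complete kill), on days 17–23 following post-emergence spray of formulated compound in water (500 L/ha, 0.1 vol % spreader); plants treated at set leaf stages, e.g. corn 2.0–3.5, wheat 1.7–3.4.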

[2] = test system: prickly sida (Sida spinosa L.); assay: Test Example 1: foliar treatment, growth inhibition rate, prickly sida; type: in vivo; conditions: 31 g/ha active ingredient, visually observed 17th to 23rd day after application
Method in brief: as §2

[3] = test system: greenfoxtail (Setaria viridis L.); assay: Test Example 1: foliar treatment, growth inhibition rate, greenfoxtail; type: in vivo; conditions: 31 g/ha active ingredient, visually observed 17th to 23rd day after application
Method in brief: (§3)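 Visual growth inhibition rating, 0% (as untreated) to 100% (complete kill), taken 17–23 d after foliar spray. Compound was formulated as wettable powder or EC, diluted to 500 L/ha water with 0.1 vol % agricultural spreader, and applied to pot-grown seedlings of corn (2.0–3.5 leaf), greenfoxtail (1.0–3.0), rice (1.0–2.5) and wheat (1.7–3.4).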

crabgrass = assay: Test Example 2: soil application on the day after sowing, growth inhibition rate, crabgrass; type: in vivo, Digitaria sanguinalis L.; conditions: 250 g/ha active ingredient, observed on 19th to 24th day
Method in brief: as §1

wheat = assay: Test Example 2: soil application on the day after sowing, growth inhibition rate, wheat; type: in vivo, Triticum spp.; conditions: 250 g/ha active ingredient, observed on 19th to 24th day
Method in brief: as §1

corn = assay: Test Example 2: soil application on the day after sowing, growth inhibition rate, corn; type: in vivo, Zea mays L.; conditions: 250 g/ha active ingredient, observed on 19th to 24th day
Method in brief: as §1

wheat (Triticum spp.) = assay: Test Example 1: foliar treatment, growth inhibition rate, wheat; type: in vivo; conditions: 31 g/ha active ingredient, visually observed 17th to 23rd day after application
Method in brief: as §3

[4] = test system: barnyardgrass (Echinochloa crus-galli L.); assay: Test Example 1: foliar treatment, growth inhibition rate, barnyardgrass; type: in vivo; conditions: 31 g/ha active ingredient, visually observed 17th to 23rd day after application
Method in brief: (§4)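 Seeds were sown in upland field soil in pots. At the target leaf stage (corn 2.0–3.5; greenfoxtail 1.0–3.0; rice 1.0–2.5; wheat 1.7–3.4), the formulated compound, diluted at a water volume of 500 L/ha with 0.1 vol % spreader, was applied by small sprayer. Plants were rated by eye on days 17–23.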

corn (Zea mays L.) = assay: Test Example 1: foliar treatment, growth inhibition rate, corn; type: in vivo; conditions: 31 g/ha active ingredient, visually observed 17th to 23rd day after application
Method in brief: as §3

[5] = test system: velvetleaf (Abutilon theophrasti MEDIC.); assay: Test Example 1: foliar treatment, growth inhibition rate, velvetleaf; type: in vivo; conditions: 31 g/ha active ingredient, visually observed 17th to 23rd day after application
Method in brief: as §4

greenfoxtail = assay: Test Example 2: soil application on the day after sowing, growth inhibition rate, greenfoxtail; type: in vivo, Setaria viridis L.; conditions: 250 g/ha active ingredient, observed on 19th to 24th day
Method in brief: as §1

rice = assay: Test Example 2: soil application on the day after sowing, growth inhibition rate, rice; type: in vivo, Oryza sativa L.; conditions: 250 g/ha active ingredient, observed on 19th to 24th day
Method in brief: as §1

[6] = test system: soybean (Glycine max Merr.); assay: Test Example 1: foliar treatment, growth inhibition rate, soybean; type: in vivo; conditions: 31 g/ha active ingredient, visually observed 17th to 23rd day after application
Method in brief: as §2

prickly sida = assay: Test Example 2: soil application on the day after sowing, growth inhibition rate, prickly sida; type: in vivo, Sida spinosa L.; conditions: 250 g/ha active ingredient, observed on 19th to 24th day
Method in brief: as §1

barnyardgrass = assay: Test Example 2: soil application on the day after sowing, growth inhibition rate, barnyardgrass; type: in vivo, Echinochloa crus-galli L.; conditions: 250 g/ha active ingredient, observed on 19th to 24th day
Method in brief: as §1

rice (Oryza sativa L.) = assay: Test Example 1: foliar treatment, growth inhibition rate, rice; type: in vivo; conditions: 31 g/ha active ingredient, visually observed 17th to 23rd day after application
Method in brief: as §3

[7] = test system: crabgrass (Digitaria sanguinalis L.); assay: Test Example 1: foliar treatment, growth inhibition rate, crabgrass; type: in vivo; conditions: 31 g/ha active ingredient, visually observed 17th to 23rd day after application
Method in brief: as §2

velvetleaf = assay: Test Example 2: soil application on the day after sowing, growth inhibition rate, velvetleaf; type: in vivo, Abutilon theophrasti MEDIC.; conditions: 250 g/ha active ingredient, observed on 19th to 24th day
Method in brief: as §1

SMILES | Growth inhibition rate (%) Soybean (soybean) | Growth inhibition rate (%) redroot pigweed (redroot pigweed) | Growth inhibition rate (%) redroot pigweed [1] | Growth inhibition rate (%) Prickly sida [2] | Growth inhibition rate (%) Greenfoxtail [3] | Growth inhibition rate (%) Crabgrass (crabgrass) | Growth inhibition rate (%) Wheat (wheat) | Growth inhibition rate (%) Corn (corn) | Growth inhibition rate (%) Wheat (wheat (Triticum spp.)) | Growth inhibition rate (%) Barnyardgrass [4] | Growth inhibition rate (%) Corn (corn (Zea mays L.)) | Growth inhibition rate (%) Velvetleaf [5] | Growth inhibition rate (%) Greenfoxtail (greenfoxtail) | Growth inhibition rate (%) Rice (rice) | Growth inhibition rate (%) Soybean [6] | Growth inhibition rate (%) Prickly sida (prickly sida) | Growth inhibition rate (%) Barnyardgrass (barnyardgrass) | Growth inhibition rate (%) Rice (rice (Oryza sativa L.)) | Growth inhibition rate (%) Crabgrass [7] | Growth inhibition rate (%) Velvetleaf (velvetleaf)
CCCSC(=O)Oc1c(C(=O)c2ccc(S(C)(=O)=O)c(C(=O)OC)c2C)cnn1CC [compound 85] | 50% | 98% | 95% | 98% | 100% | 100% | 0% | 10% | 60% | 98% | 10% | 98% | 100% | 100% | 98% | 100% | 100% | 95% | 98% | 100%
CCC(C)SC(=O)Oc1c(C(=O)c2ccc(S(C)(=O)=O)c(C(=O)OC)c2C)cnn1CC (stereo not drawn) [compound 89] | 0% | 90% | 90% | 60% | 100% | 95% | 0% | 0% | 20% | 100% | 20% | 100% | 80% | 80% | 95% | 50% | 70% | 100% | 100% | 70%
CSC(=O)Oc1c(C(=O)c2ccc(S(C)(=O)=O)c(C3=NOCC3)c2C)cnn1C [compound 40] | 60% | 100% | 90% | 70% | 95% | 100% | 10% | 0% | 0% | 95% | 10% | 90% | 100% | 90% | 90% | 85% | 100% | 70% | 80% | 90%
CCOC(=O)c1c(S(C)(=O)=O)ccc(C(=O)c2cnn(CC)c2OC(=O)SCC)c1Cl [compound 59] | 10% | 100% | 80% | 80% | 70% | 100% | 10% | 0% | 10% | 90% | 0% | 75% | 100% | 80% | 70% | 98% | 100% | 50% | 80% | 100%
CCSC(=O)Oc1c(C(=O)c2ccc(S(C)(=O)=O)c(CN(C)CC#N)c2C)cnn1C [compound 210] | 0% | 20% | 10% | 70% | 50% | 10% | 0% | 0% | 0% | 80% | 0% | 60% | 0% | 0% | 50% | 40% | 0% | 50% | 30% | 0%
CCSC(=O)Oc1c(C(=O)c2ccc(S(C)(=O)=O)c(OCCCOC)c2C)cnn1C [compound 218] | 0% | 100% | 100% | 70% | 95% | 80% | 0% | 0% | 10% | 100% | 0% | 90% | 90% | 80% | 95% | 50% | 90% | 98% | 100% | 30%
CCCOc1c(S(C)(=O)=O)ccc(C(=O)c2cnn(CC)c2OC(=O)SCC)c1C [compound 67] | 20% | 50% | 95% | 60% | 100% | 70% | 0% | 0% | 10% | 95% | 10% | 90% | 40% | 60% | 90% | 70% | 60% | 60% | 98% | 60%
CCSC(=O)Oc1c(C(=O)c2ccc(S(C)(=O)=O)c(OCCOC)c2Cl)cnn1C [compound 216] | 0% | 100% | 100% | 50% | 98% | 100% | 0% | 0% | 0% | 100% | 10% | 98% | 100% | 80% | 95% | 80% | 95% | 70% | 100% | 90%
CCCOc1c(S(C)(=O)=O)ccc(C(=O)c2cnn(C)c2OC(=O)SCC)c1C [compound 66] | 0% | 95% | 95% | 75% | 100% | 90% | 0% | 0% | 10% | 95% | 0% | 95% | 40% | 90% | 98% | 90% | 80% | 60% | 98% | 40%
